Entries after “also recorded” stand apart in the source; their conditions may differ. Like-named read-outs stand apart in the source and are kept apart here.
Assays:
[1] = system: dysferlin-null A/J myofibers; assay: Distribution of Venus-tagged constructs (triad junctions vs Z-disks) in transfected myofibers; format: cell-based, mouse; conditions: FIG. 6
Description: (§1) FIGS. 2A-2E show the DYSF-C2A distribution and partial protection against loss of Ca^2+ transient and development of Ca^2+ waves after OSI. The construct in FIG. 2A was electroporated into Flexor digitorum brevis (FDB) muscles of dysferlin-null A/J mice and imaged 10 d later. […] Distribution of the Venus construct is indicated to the right. Recovery is partial (in the upper region of fiber). FIG. 2D quantitates results from several dozen fibers of each type. […] Higher levels of expression show more consistent recoveries and suppression of waves than lower levels.
The constructs in FIG. 4A were electroporated and visualized as in FIG. 2. […] Recovery is complete. FIG. 4D quantitates results from several dozen fibers transfected with each construct. […] Note the high level of Ca release and low frequency of waves indicated by the y-intercepts at low transfection levels.
A Venus-tagged version of the C2 domain of PKCα was expressed in both control (C57Bl/6) (FIG. 12A) and dysferlin-null (A/J) myofibers (FIG. 12B) and the transfected fibers were imaged. […] They help to explain the ability of the chimeric constructs containing Ven-C2-PKCα to potentiate the beneficial effects of the DYSF-C2A domain.

[2] = system: dysferlin-null A/J myofibers; assay: Ca2+ signaling: voltage-induced Ca2+ transients (Rhod-2) and Ca2+ waves before and after osmotic shock injury (OSI) in electroporated FDB myofibers; format: cell-based, mouse; conditions: for Effect on amplitude of Ca2+ transients: A/J fibers, FIG. 8; for Ca2+ signaling activity (restoring/protecting amplitude of the Ca2+ transient after OSI): construct electroporated into dysferlin-null A/J FDB fibers, Rhod-2, before and 5 min after OSI; for Ca2+ wave frequency / suppression of Ca2+ waves after OSI: construct expressed in A/J fibers; for y-intercept for Ca transient (normalized Ca release vs amount of Venus construct in each fiber) / y-intercept for wave frequency (Ca wave frequency vs amount of Venus construct in each fiber): intercept at low expression level, FIG. 2E / FIG. 4E
Description: as §1
To assay Ca^2+ transients, Rhod-2 was added to myofibers as the Rhod2-AM derivative at a concentration of 4.4 μM, or almost 500× higher than the concentration of BAPTA-AM that effectively restores the WT phenotype. Rhod-2 is essentially rhodamine on a BAPTA backbone, so its mode of binding Ca^2+ is identical to that of BAPTA. Rhod-2 has a (calculated) Stokes' radius ˜20% larger than BAPTA; it has a lower affinity for Ca^2+ and its solubility in DMSO is ˜20× lower than BAPTA's. Rhod-2 appears to distribute uniformly in the myoplasm under these conditions of loading.

cultured myofibers = assay: Accumulation of chelator in treated myofibers, estimated with fluorescent variant Fluo4-AM; format: cell-based; conditions: 10 nM extracellular concentration
Protocol: This concentration of BAPTA in myofibers is sufficient to restore elevated myoplasmic [Ca^2+ ] of 150-200 nM to levels close to WT levels of ˜100 nM. This can explain why as little as 10 nM BAPTA-AM can restore the WT phenotype.

dysferlin and PKCα = assay: Colocalization and co-immunoprecipitation of dysferlin and PKCα; format: cell-based
[3] = system: dysferlin-null A/J myofibers; conditions: dysferlin-null fibers, background / known results, cited from earlier work
FDB muscles of A/J mice [4] = assay: Membrane repair after infrared laser injury in the presence of FM4-64 dye; format: cell-based, mouse; conditions: A/J FDB muscle, FM4-64 fluorescence, area under curve
Description: FIGS. 3A-3B show the membrane repair by the DYSF-C2A domain. FDB muscles of A/J mice were electroporated with expression plasmids for WT DYSF or DYSF-C2A. 7d later muscles were removed and injured by infrared laser illumination in the presence of FM4-64 lipophilic dye. […] Means±SEM, n=7, *p<0.01 by ANOVA followed with Tukey's post-hoc test.

Solubility in DMSO = format: physicochemical
FDB muscles of A/J mice [5] = conditions: dysferlin-null fibers, background / known results; cited from earlier work

Molecule: 2 C2-PKCα domains with a single DYSF-C2A domain: construct that contains 2 C2-PKCα domains with a single DYSF-C2A domain; SEQ ID NO: 13
- Transfected fibers with construct targeted to / concentrated at TJs [1]: 75%

Molecule: CC(=O)OCOC(=O)CN(CC(=O)OCOC(C)=O)c1ccccc1OCCOc1ccccc1N(CC(=O)OCOC(C)=O)CC(=O)OCOC(C)=O [BAPTA-AM, reference compound]
- Restoration of WT phenotype (Ca2+ transient before and after OSI, Ca2+ waves) ([2]; 10 nM added to cultured A/J myofibers): effectively restores A/J myofibers to the WT phenotype

Molecule: CC(=O)OCOC(=O)CN(CC(=O)OCOC(C)=O)c1ccc(C)cc1OCCOc1cc(-c2c3cc(F)c(=O)cc-3oc3cc(OCOC(C)=O)c(F)cc23)ccc1N(CC(=O)OCOC(C)=O)CC(=O)OCOC(C)=O [Fluo4-AM]
- Intracellular vs extracellular concentration (cultured myofibers): 7-10 fold

Molecule: CCCCCCCCCCCCCC(=O)O[C@@H]1[C@@H](C)[C@@]2(O)[C@@H](C=C(CO)C[C@]3(O)C(=O)C(C)=C[C@@H]23)[C@@H]2C(C)(C)[C@]12OC(C)=O [PMA, phorbol 12-myristate 13-acetate, reference compound]
- Effect on colocalization of dysferlin and PKCα in myofibers and on co-IP from HEK cells (dysferlin and PKCα): neither phorbol 12-myristate 13-acetate (PMA) nor staurosporine, drugs that activate and inhibit PKCα, respectively, have any effect
- Effect on amplitude of Ca2+ transients [2]: significantly alter the amplitude of the Ca^2+ transients

Molecule: O=C1CN(/N=C/c2ccc(-c3ccc([N+](=O)[O-])cc3)o2)C(O)=N1 [dantrolene]
- Ca2+ signaling (Ca2+ transient amplitude, loss after OSI, waves), earlier studies [3]: prevented these changes

Molecule: COc1ccc([C@@H]2Sc3ccccc3N(CCN(C)C)C(=O)[C@@H]2OC(C)=O)cc1 [diltiazem]
- Ca2+ signaling (Ca2+ transient amplitude, loss after OSI, waves), earlier studies [3]: prevented these changes

Molecule: CN[C@@H]1C[C@H]2O[C@@](C)([C@@H]1OC)n1c3ccccc3c3c4c(c5c6ccccc6n2c5c31)C(=O)NC4 [staurosporine, reference compound]
- Effect on amplitude of Ca2+ transients [2]: significantly alter the amplitude of the Ca^2+ transients

Molecule: A84V: full length dysferlin with polymorphism A84V in C2A [reference compound]
- Ca2+ signaling activity (restoring/protecting amplitude of the Ca2+ transient after OSI) [2]: left dysferlin's Ca^2+ signaling activity intact

Molecule: C2 domain of PKCα: isolated C2 domain of PKCα (XP_024306597.1, residues 71-229), tagged with a Venus moiety
- Membrane repair activity (FDB muscles of A/J mice [4]): inactive
- Ca2+ signaling activity (restoring/protecting amplitude of the Ca2+ transient after OSI) [2]: completely without activity
- Ca2+ signaling activity (restoring/protecting amplitude of the Ca2+ transient after OSI) ([2]; listed as PKCα-C2): failed to replicate the effects of DYSF-C2A
- Ca2+ signaling activity (restoring/protecting amplitude of the Ca2+ transient after OSI) ([2]; listed as PKCα-C2 domain): inactive

Molecule: C2-PKCα-DYSF-C2A: chimeric construct with C2-PKCα just N-terminal to DYSF-C2A, tagged with Venus; SEQ ID NO: 11
- Transfected fibers with construct targeted to / concentrated at TJs [1]: ~25%
- Membrane repair activity (FDB muscles of A/J mice [4]): improved repair as well as WT DYSF; also recorded: just as effective as WT DYSF in supporting membrane repair
- Ca2+ signaling activity (restoring/protecting amplitude of the Ca2+ transient after OSI) [2]: results identical to WT DYSF; also recorded: indistinguishable from WT DYSF in restoring the amplitude of the Ca^2+ transient
- Ca2+ wave frequency / suppression of Ca2+ waves after OSI [2]: almost as effective in suppressing Ca^2+ waves
- y-intercept for Ca transient (normalized Ca release vs amount of Venus construct in each fiber) [2]: 3.7
- y-intercept for wave frequency (Ca wave frequency vs amount of Venus construct in each fiber) [2]: 0.11

Molecule: DYSF-C2A: C2A domain of dysferlin (AF075575.1, amino acids 1-100) expressed on its own as a Venus fusion protein; SEQ ID NO: 4
- Membrane repair activity (FDB muscles of A/J mice [4]): improved repair as well as WT DYSF; also recorded: fully stabilized membrane repair activity
- Ca2+ signaling activity (restoring/protecting amplitude of the Ca2+ transient after OSI) [2]: intermediate between Venus (negative control) and WT DYSF (positive control) controls; also recorded: partially restored some Ca^2+ signaling activity
- Ca2+ wave frequency / suppression of Ca2+ waves after OSI [2]: low frequency of Ca^2+ waves, only slightly more than with WT DYSF
- y-intercept for Ca transient (normalized Ca release vs amount of Venus construct in each fiber) [2]: 0.47
- y-intercept for wave frequency (Ca wave frequency vs amount of Venus construct in each fiber) [2]: 0.37

Molecule: Rhod-2
- Solubility in DMSO relative to BAPTA (Solubility in DMSO): ~20 × lower

Molecule: V67D: full length dysferlin with pathogenic mutation V67D in C2A [reference compound]
- Ca2+ signaling activity (restoring/protecting amplitude of the Ca2+ transient after OSI) [2]: inactivated full length dysferlin

Molecule: V68L: full length dysferlin with polymorphism V68L in C2A [reference compound]
- Ca2+ signaling activity (restoring/protecting amplitude of the Ca2+ transient after OSI) [2]: left dysferlin's Ca^2+ signaling activity intact

Molecule: W52R: full length dysferlin with pathogenic mutation W52R in C2A [reference compound]
- Ca2+ signaling activity (restoring/protecting amplitude of the Ca2+ transient after OSI) [2]: inactivated full length dysferlin

Molecule: WT dysferlin: wild type full length dysferlin introduced by electroporation, positive control
- Ca2+ signaling (Ca2+ transient amplitude, loss after OSI, waves), earlier studies [3]: restores full activity
- Ca2+ signaling (Ca2+ transient amplitude, loss after OSI, waves), earlier studies ([3]; listed as wild type dysferlin): restores the amplitude of Ca^2+ transients to WT levels
- Membrane repair, earlier studies (FDB muscles of A/J mice [5]): restores full activity
